Experiments:
SLC26A4 = molecular target: T1, SLC26A4 (Homo sapiens, UniProt O43511); test: YFP-based selectivity assay, SLC26A4; assay type: cell-based; conditions: for inhibition at 10 µM: read-out: % Inhibition SLC26A4
T1 sequence (O43511 1-780): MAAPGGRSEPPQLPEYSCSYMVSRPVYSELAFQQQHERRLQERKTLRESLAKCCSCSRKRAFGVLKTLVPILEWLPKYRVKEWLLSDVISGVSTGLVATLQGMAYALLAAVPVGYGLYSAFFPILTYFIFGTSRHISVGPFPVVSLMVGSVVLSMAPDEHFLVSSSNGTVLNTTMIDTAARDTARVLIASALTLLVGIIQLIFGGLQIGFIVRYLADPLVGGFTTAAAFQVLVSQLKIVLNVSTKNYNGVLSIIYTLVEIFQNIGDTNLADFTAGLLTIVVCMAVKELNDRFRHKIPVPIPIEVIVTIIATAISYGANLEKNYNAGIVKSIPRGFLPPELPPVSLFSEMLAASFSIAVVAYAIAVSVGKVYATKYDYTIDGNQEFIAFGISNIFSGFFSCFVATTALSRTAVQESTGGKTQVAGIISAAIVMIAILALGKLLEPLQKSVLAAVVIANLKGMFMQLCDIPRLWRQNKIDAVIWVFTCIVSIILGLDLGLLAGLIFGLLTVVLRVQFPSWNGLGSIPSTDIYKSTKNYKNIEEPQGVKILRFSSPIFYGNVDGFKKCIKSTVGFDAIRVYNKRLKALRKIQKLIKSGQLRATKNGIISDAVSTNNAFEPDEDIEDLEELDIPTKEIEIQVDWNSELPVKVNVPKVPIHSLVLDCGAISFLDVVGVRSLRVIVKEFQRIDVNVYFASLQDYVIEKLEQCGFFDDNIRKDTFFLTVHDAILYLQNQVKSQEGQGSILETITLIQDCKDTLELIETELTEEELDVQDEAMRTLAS

TMEM16A = test: YFP-based selectivity assay, TMEM16A; assay type: cell-based; conditions: 10 μM, mean ± S.E.M., n = 6–8
SLC26A3 = molecular target: T2, SLC26A3 (Mus musculus, UniProt Q9WVC8); test: Kinetic studies of inhibitor action; assay type: cell-based, murine; conditions: from kinetics of inhibition onset and washout
T2 sequence (Q9WVC8 1-757): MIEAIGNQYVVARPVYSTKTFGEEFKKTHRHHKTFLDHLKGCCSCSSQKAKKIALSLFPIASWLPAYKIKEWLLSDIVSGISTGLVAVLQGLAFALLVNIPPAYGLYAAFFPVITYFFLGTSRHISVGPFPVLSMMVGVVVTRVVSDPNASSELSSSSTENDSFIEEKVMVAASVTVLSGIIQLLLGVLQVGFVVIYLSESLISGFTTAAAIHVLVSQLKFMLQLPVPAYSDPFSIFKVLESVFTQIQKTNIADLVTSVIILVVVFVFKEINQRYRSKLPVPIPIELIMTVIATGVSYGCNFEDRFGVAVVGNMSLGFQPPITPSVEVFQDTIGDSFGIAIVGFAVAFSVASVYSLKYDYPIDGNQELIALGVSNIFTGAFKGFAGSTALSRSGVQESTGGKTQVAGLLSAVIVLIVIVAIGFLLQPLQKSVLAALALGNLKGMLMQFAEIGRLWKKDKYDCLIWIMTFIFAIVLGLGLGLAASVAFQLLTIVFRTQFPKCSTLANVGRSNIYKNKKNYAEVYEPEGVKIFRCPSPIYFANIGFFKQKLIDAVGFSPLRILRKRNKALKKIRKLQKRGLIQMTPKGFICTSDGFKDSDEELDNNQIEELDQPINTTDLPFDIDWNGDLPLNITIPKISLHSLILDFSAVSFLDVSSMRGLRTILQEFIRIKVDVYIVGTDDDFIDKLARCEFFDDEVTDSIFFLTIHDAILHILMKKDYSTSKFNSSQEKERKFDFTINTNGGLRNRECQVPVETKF

[1] = system: loperamide-induced constipation; test: Loperamide-induced model of constipation in mice; assay type: in vivo, CD1 mice
[2] = system: hyperoxaluria and oxalate nephropathy; conditions: mice orally loaded with oxalate; cited from earlier work
[3] = system: absorption of fluid and oxalate from the loop lumen; conditions: closed colonic loops in mice; cited from earlier work
[4] = system: loperamide-induced constipation; conditions: mouse model of constipation produced by loperamide; cited from earlier work
[5] = loperamide-treated mice (0.3 mg/kg ip), 10 mg/kg oral gavage, vs vehicle
[6] = loperamide 0.3 mg/kg intraperitoneal

`O=C(Nc1ccccc1C(=O)O)c1ccc2c(c1)C(=O)N(c1ccc(Cl)cc1)C2=O` [Compound 1a] showed an inhibition at 10 µM (SLC26A4) of -14 ± 19%.

For `Cc1cc(C)cc(N(C)S(=O)(=O)c2nnc(NC(=O)COc3ccc(C)c(C)c3)s2)c1` [Compound 2a], the “% Inhibition TMEM16A” value (TMEM16A) was > 80%.

For `O=c1cc(COc2ccccc2Cl)nc2scc(-c3ccccc3)n12` [Compound 3a, 7-(2-chloro-phenoxymethyl)-3-phenyl-thiazolo [3,2-a]pyrimidin-5-one], the inhibition at 10 µM (SLC26A4) was -13 ± 23%, the site of action (SLC26A3) was “Extracellular” and the number of pellets [1, 5] was “significantly increased”. For the same compound, the stool weight [1, 5] was “significantly increased”.

With `Cc1ccccc1COc1ccc2oc(-c3ccccc3)c(C(=O)O)c2c1` [Compound 4a] the inhibition at 10 µM (SLC26A4) was -13 ± 21% and the site of action (SLC26A3) was “Extracellular”.

In the case of `COC(=O)c1c(C)oc2ccc(OC(=O)COCc3ccccc3)cc12` [Compound 4h], the “activity against SLC26A4 (in words)” value (SLC26A4) is reported as “active”.

For `Cc1c(CC(=O)O)c(=O)oc2c(C)c(OCc3cccc(I)c3)ccc12` [DRAinh-A270, [7-(3-iodobenzyloxy)-4,8-dimethylcoumarin]-3-acetic acid], the “preventing hyperoxaluria and oxalate nephropathy” value [2] is given as “effective”, the “absorption of fluid and oxalate from the loop lumen” value [3] is given as “inhibited” and the “improving stool output and hydration” value [4] is given as “effective”. The site of action (SLC26A3) was “intracellular”.

For `CN(C)C(=O)C(CCN1CCC(O)(c2ccc(Cl)cc2)CC1)(c1ccccc1)c1ccccc1` [Loperamide, loperamide, reference compound], the “reduced pellet number compared to control mice” value [1, 6] was > 90% and the “reduced stool weight compared to control mice” value [1, 6] was > 90%.

Source: article PMC10124120 (European journal of medicinal chemistry, 2023)
